Measured values as given in US10175256B2, “Compositions and methods utilizing lysophosphatidylcholine scaffolds” (National University Of Singapore, priority 2013, dated 2019).
Where “and” joins values, the source holds several entries; their conditions need not be identical. Identical values can stand only once.

System: mouse Mfsd2a
Experiment: Cell-based free fatty acid transport/uptake in Mfsd2a expressing HEK293 cells (mass spectrometry, TLC; Table 1)
Details: mock HEK293 cells, 100 uM fatty acid/BSA overnight
In short: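 HEK293 cells expressing mouse Mfsd2a, or mock controls, were incubated overnight with 100 μM BSA-complexed fatty acids. Lipids were extracted in hexane:isopropanol (3:2) and phospholipid species quantified by HPLC-MS/MS against spiked internal standards. For TLC, cells received 100 μM [^14C]-oleate overnight, and phospholipids and neutral lipids were resolved.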

## CCCCCCCCCCCCCCCC(=O)O [Palmitic acid]
  % DHA in PC + lysoPC: 0.04025% and 0.03837% and 0.03939%
  % DHA in PE + lysoPE: 10.87% and 12.13% and 11.44%
  % DHA in PI and lysoPI: 0.01445% and 0.01615% and 0.01441%
  % DHA in PS: 0.1091% and 0.1184% and 0.1391%
  LPI16:0 in total phospholipid: 0.004053 mol percent and 0.002611 mol percent and 0.002621 mol percent
  LPI18:0 in total phospholipid: 0.0326 mol percent and 0.02611 mol percent and 0.03227 mol percent
  LPI20:4 in total phospholipid: 0.002114 mol percent and 0.002121 mol percent and 0.002948 mol percent
  LPI22:6 in total phospholipid: 0.009339 mol percent and 0.008648 mol percent and 0.007698 mol percent
  Lyso PE16:0p in total phospholipid: 2.649 mol percent and 2.594 mol percent and 2.175 mol percent
  Lyso PE18:0p in total phospholipid: 0.4161 mol percent and 0.4127 mol percent and 0.4189 mol percent
  Lyso PE18:1p in total phospholipid: 0.2081 mol percent and 0.1327 mol percent and 0.1216 mol percent
  Lyso PE20:0p in total phospholipid: 0.1803 mol percent and 0.2801 mol percent and 0.1892 mol percent
  LysoPC16:0e in total phospholipid: 0.003391 mol percent and 0.004221 mol percent and 0.003565 mol percent
  LysoPC16:0 in total phospholipid: 0.02383 mol percent and 0.02127 mol percent and 0.02008 mol percent
  LysoPC16:1 in total phospholipid: 0.006406 mol percent and 0.00591 mol percent and 0.006781 mol percent
  LysoPC18:0e in total phospholipid: 0.002449 mol percent and 0.002111 mol percent and 0.001826 mol percent
  LysoPC18:0 in total phospholipid: 0.0065 mol percent and 0.007261 mol percent and 0.008694 mol percent
  LysoPC18:1 in total phospholipid: 0.01564 mol percent and 0.01503 mol percent and 0.01617 mol percent
  LysoPC18:2 in total phospholipid: 0.00179 mol percent and 0.001266 mol percent and 0.001826 mol percent
  LysoPC20:4 in total phospholipid: 0.000565 mol percent and 0.000507 mol percent and 0.000435 mol percent
  LysoPC22:5 in total phospholipid: 0.000565 mol percent and 0.000507 mol percent and 0.000609 mol percent
  LysoPE16:1 in total phospholipid: 0.1387 mol percent and 0.1179 mol percent and 0.1351 mol percent
  LysoPE18:0 in total phospholipid: 0.1248 mol percent and 0.1327 mol percent and 0.06756 mol percent
  LysoPE18:1 in total phospholipid: 0.06936 mol percent and 0.1032 mol percent and 0.1081 mol percent
  PC32:0e in total phospholipid: 1.801 mol percent and 1.766 mol percent and 1.854 mol percent
  PC32:0 in total phospholipid: 2.545 mol percent and 2.525 mol percent and 2.567 mol percent
  PC32:1e in total phospholipid: 2.44 mol percent and 2.388 mol percent and 2.446 mol percent
  PC32:1 in total phospholipid: 9.659 mol percent and 9.461 mol percent and 9.558 mol percent
  PC32:2 in total phospholipid: 1.526 mol percent and 1.443 mol percent and 1.528 mol percent
  PC34:1e in total phospholipid: 4.963 mol percent and 4.847 mol percent and 4.905 mol percent
  PC34:1 in total phospholipid: 19.9344 mol percent and 19.96 mol percent and 20.13 mol percent
  PC34:2e in total phospholipid: 1.578 mol percent and 1.538 mol percent and 1.559 mol percent
  PC34:2 in total phospholipid: 6.328 mol percent and 6.182 mol percent and 6.318 mol percent
  PC34:3e in total phospholipid: 0.2382 mol percent and 0.2269 mol percent and 0.2367 mol percent
  PC34:3 in total phospholipid: 0.6391 mol percent and 0.6013 mol percent and 0.6247 mol percent
  PC36:1e in total phospholipid: 1.472 mol percent and 1.429 mol percent and 1.48 mol percent
  PC36:1 in total phospholipid: 2.714 mol percent and 2.676 mol percent and 2.731 mol percent
  PC36:2e in total phospholipid: 1.667 mol percent and 1.629 mol percent and 1.643 mol percent
  PC36:2 in total phospholipid: 5.976 mol percent and 5.824 mol percent and 5.922 mol percent
  PC36:3e in total phospholipid: 0.8048 mol percent and 0.7841 mol percent and 0.7962 mol percent
  PC36:3 in total phospholipid: 1.196 mol percent and 1.137 mol percent and 1.173 mol percent
  PC36:4e in total phospholipid: 0.4288 mol percent and 0.4113 mol percent and 0.4345 mol percent
  PC36:4 in total phospholipid: 0.338 mol percent and 0.3342 mol percent and 0.3346 mol percent
  PC36:5e in total phospholipid: 0.345 mol percent and 0.3295 mol percent and 0.3467 mol percent
  PC36:5 in total phospholipid: 0.06048 mol percent and 0.05513 mol percent and 0.06303 mol percent
  PC36:6 in total phospholipid: 0.04691 mol percent and 0.05294 mol percent and 0.05486 mol percent
  PC38:1e in total phospholipid: 0.3684 mol percent and 0.3499 mol percent and 0.3643 mol percent
  PC38:3e in total phospholipid: 0.4177 mol percent and 0.3847 mol percent and 0.3977 mol percent
  PC38:3 in total phospholipid: 0.5512 mol percent and 0.5341 mol percent and 0.5477 mol percent
  PC38:4e in total phospholipid: 0.4224 mol percent and 0.3985 mol percent and 0.4045 mol percent
  PC38:4 in total phospholipid: 0.4716 mol percent and 0.4393 mol percent and 0.4567 mol percent
  PC38:5e in total phospholipid: 0.3578 mol percent and 0.3449 mol percent and 0.3552 mol percent
  PC38:5 in total phospholipid: 0.2477 mol percent and 0.2424 mol percent and 0.2561 mol percent
  PC38:6 in total phospholipid: 0.174 mol percent and 0.1785 mol percent and 0.1847 mol percent
  PC38:7 in total phospholipid: 0.1181 mol percent and 0.1149 mol percent and 0.1218 mol percent
  PC40:1e in total phospholipid: 0.1903 mol percent and 0.1874 mol percent and 0.1969 mol percent
  PC40:2e in total phospholipid: 0.2001 mol percent and 0.2004 mol percent and 0.2061 mol percent
  PC40:3e in total phospholipid: 0.1401 mol percent and 0.1387 mol percent and 0.1449 mol percent
  PC40:4e in total phospholipid: 0.1234 mol percent and 0.1193 mol percent and 0.1297 mol percent
  PC40:5e in total phospholipid: 0.1139 mol percent and 0.1153 mol percent and 0.1197 mol percent
  PC40:5 in total phospholipid: 0.09044 mol percent and 0.0835 mol percent and 0.08903 mol percent
  PC40:6 in total phospholipid: 0.1315 mol percent and 0.1248 mol percent and 0.1282 mol percent
  PC40:7 in total phospholipid: 0.1778 mol percent and 0.1711 mol percent and 0.1768 mol percent
  PE32:1 in total phospholipid: 0.3976 mol percent and 0.2948 mol percent and 0.3603 mol percent
  PE32:2 in total phospholipid: 0.111 mol percent and 0.1474 mol percent and 0.08107 mol percent
  PE34:0 in total phospholipid: 0.1665 mol percent and 0.1867 mol percent and 0.1531 mol percent
  PE34:1 in total phospholipid: 1.137 mol percent and 1.327 mol percent and 1.144 mol percent
  PE34:2 in total phospholipid: 0.7398 mol percent and 0.9433 mol percent and 0.7927 mol percent
  PE34p:1 in total phospholipid: 0.971 mol percent and 1.042 mol percent and 0.8107 mol percent
  PE34p:2 in total phospholipid: 0.2589 mol percent and 0.2653 mol percent and 0.2702 mol percent
  PE36:1 in total phospholipid: 1.322 mol percent and 1.425 mol percent and 1.18 mol percent
  PE36:2 in total phospholipid: 1.822 mol percent and 1.936 mol percent and 1.702 mol percent
  PE36:3 in total phospholipid: 0.4809 mol percent and 0.3636 mol percent and 0.4143 mol percent
  PE36:4 in total phospholipid: 0.2219 mol percent and 0.2555 mol percent and 0.1711 mol percent
  PE36p:1 in total phospholipid: 0.4994 mol percent and 0.3931 mol percent and 0.3603 mol percent
  PE36p:2 in total phospholipid: 0.4531 mol percent and 0.5896 mol percent and 0.6485 mol percent
  PE36p:3 in total phospholipid: 0.7305 mol percent and 0.7272 mol percent and 0.9548 mol percent
  PE36p:4 in total phospholipid: 0.9617 mol percent and 0.9433 mol percent and 0.9458 mol percent
  PE38:1 in total phospholipid: 0.3791 mol percent and 0.3046 mol percent and 0.3063 mol percent
  PE38:2 in total phospholipid: 0.2589 mol percent and 0.2555 mol percent and 0.3423 mol percent
  PE38:3 in total phospholipid: 0.6381 mol percent and 0.7959 mol percent and 0.5495 mol percent
  PE38:4 in total phospholipid: 0.8693 mol percent and 0.9237 mol percent and 0.8647 mol percent
  PE38:5 in total phospholipid: 0.3791 mol percent and 0.5405 mol percent and 0.4684 mol percent
  PE38:6 in total phospholipid: 0.1665 mol percent and 0.1376 mol percent and 0.1531 mol percent
  PE38p:0 in total phospholipid: 0.05548 mol percent and 0.08844 mol percent and 0.09008 mol percent
  PE38p:1 in total phospholipid: 0.2034 mol percent and 0.226 mol percent and 0.2432 mol percent
  PE38p:2 in total phospholipid: 0.2312 mol percent and 0.2948 mol percent and 0.3423 mol percent
  PE38p:3 in total phospholipid: 0.7768 mol percent and 0.8352 mol percent and 0.7656 mol percent
  PE38p:4 in total phospholipid: 1.036 mol percent and 0.8549 mol percent and 0.9998 mol percent
  PE38p:5 in total phospholipid: 0.6381 mol percent and 0.7272 mol percent and 0.7026 mol percent
  PE38p:6 in total phospholipid: 0.971 mol percent and 1.238 mol percent and 1.108 mol percent
  PE40:3 in total phospholipid: 0.1202 mol percent and 0.1179 mol percent and 0.1621 mol percent
  PE40:5 in total phospholipid: 0.1572 mol percent and 0.1376 mol percent and 0.2432 mol percent
  PE40:6 in total phospholipid: 0.3052 mol percent and 0.3832 mol percent and 0.2702 mol percent
  PE40p:4 in total phospholipid: 0.2959 mol percent and 0.2162 mol percent and 0.2973 mol percent
  PE40p:5 in total phospholipid: 0.2312 mol percent and 0.285 mol percent and 0.3153 mol percent
  PE40p:6 in total phospholipid: 0.5271 mol percent and 0.7272 mol percent and 0.6485 mol percent
  PE42p:4 in total phospholipid: 0.07398 mol percent and 0.05896 mol percent and 0.08107 mol percent
  PE42p:6 in total phospholipid: 0.1572 mol percent and 0.167 mol percent and 0.1441 mol percent
  PE42p:7 in total phospholipid: 0.1942 mol percent and 0.1277 mol percent and 0.1621 mol percent
  PI 32:1 in total phospholipid: 0.01674 mol percent and 0.0186 mol percent and 0.01785 mol percent
  PI 32:2 in total phospholipid: 0.001586 mol percent and 0.001469 mol percent and 0.001965 mol percent
  PI 34:1 in total phospholipid: 0.1071 mol percent and 0.1227 mol percent and 0.1299 mol percent
  PI 34:2 in total phospholipid: 0.06502 mol percent and 0.06038 mol percent and 0.07305 mol percent
  PI 36:1 in total phospholipid: 0.1544 mol percent and 0.1643 mol percent and 0.1769 mol percent
  PI 36:2 in total phospholipid: 0.3593 mol percent and 0.3719 mol percent and 0.3898 mol percent
  PI 36:3 in total phospholipid: 0.1695 mol percent and 0.1663 mol percent and 0.1785 mol percent
  PI 36:4 in total phospholipid: 0.04176 mol percent and 0.03965 mol percent and 0.0416 mol percent
  PI 38:2 in total phospholipid: 0.3441 mol percent and 0.3474 mol percent and 0.3631 mol percent
  PI 38:3 in total phospholipid: 0.9296 mol percent and 0.9911 mol percent and 1.026 mol percent
  PI 38:4 in total phospholipid: 0.3635 mol percent and 0.3967 mol percent and 0.3998 mol percent
  PI 38:5 in total phospholipid: 0.05392 mol percent and 0.0483 mol percent and 0.04815 mol percent
  PI 38:6 in total phospholipid: 0.0074 mol percent and 0.009628 mol percent and 0.007698 mol percent
  PI 40:3 in total phospholipid: 0.02555 mol percent and 0.02627 mol percent and 0.02801 mol percent
  PI 40:4 in total phospholipid: 0.01515 mol percent and 0.01599 mol percent and 0.01196 mol percent
  PI 40:5 in total phospholipid: 0.004934 mol percent and 0.004895 mol percent and 0.009172 mol percent
  PI 40:6 in total phospholipid: 0.007048 mol percent and 0.006527 mol percent and 0.006715 mol percent
  PS(sum) in total phospholipid: 3.034 mol percent and 2.842 mol percent and 3.239 mol percent
  PS:34:1 in total phospholipid: 0.4968 mol percent and 0.4486 mol percent and 0.5434 mol percent
  PS:34:2 in total phospholipid: 0.04738 mol percent and 0.04492 mol percent and 0.04867 mol percent
  PS:36:1 in total phospholipid: 1.269 mol percent and 1.209 mol percent and 1.375 mol percent
  PS:36:2 in total phospholipid: 0.4595 mol percent and 0.4148 mol percent and 0.4611 mol percent
  PS:36:3 in total phospholipid: 0.02585 mol percent and 0.02217 mol percent and 0.0262 mol percent
  PS:36:4 in total phospholipid: 0.00359 mol percent and 0.006418 mol percent and 0.006239 mol percent
  PS:38:2 in total phospholipid: 0.2312 mol percent and 0.2147 mol percent and 0.2602 mol percent
  PS:38:3 in total phospholipid: 0.1522 mol percent and 0.1447 mol percent and 0.1566 mol percent
  PS:38:4 in total phospholipid: 0.07467 mol percent and 0.08168 mol percent and 0.07674 mol percent
  PS:40:4 in total phospholipid: 0.08328 mol percent and 0.06359 mol percent and 0.073 mol percent
  PS:40:5 in total phospholipid: 0.06605 mol percent and 0.06534 mol percent and 0.05865 mol percent
  PS:40:6 in total phospholipid: 0.09836 mol percent and 0.1038 mol percent and 0.1248 mol percent
  PS:40:7 in total phospholipid: 0.01077 mol percent and 0.01459 mol percent and 0.01435 mol percent
  Total PC + lysoPC in total phospholipid: 71.06 mol percent and 69.79 mol percent and 71.05 mol percent
  Total PE + lysoPE in total phospholipid: 23.19 mol percent and 24.54 mol percent and 22.75 mol percent
  Total PI + lysoPI in total phospholipid: 2.715 mol percent and 2.832 mol percent and 2.956 mol percent
